Reference: patent publication US7393870B2, “3-(heteroarylamino)methylene-1, 3-dihydro-2H-indol-2-ones as kinase inhibitors” (Allergan, Inc., priority 2001, dated 2008)

What was measured:
[1] = tested on: VEGF-induced EBD extravasation; assay: Miles Assay: VEGF-induced Dermal Extravasation in Guinea Pig; assay type: in vivo; conditions: oral administration, Table 3
Procedure: (§1) Automated FLIPR (Fluorometric Imaging Plate Reader) technology was used to screen for inhibitors of VEGF induced increases in intracellular calcium levels in fluorescent dye loaded endothelial cells. HUVEC (human umbilical vein endothelial cells) (Clonetics) were seeded in 96-well fibronectin coated black-walled plates overnight @ 37° C./5% CO2. Cells were loaded with calcium indicator Fluo-4 for 45 minutes at 37° C. Cells were washed 4 times (Original Cell Wash, Labsystems) to remove extracellular dye. Test compounds were reconstituted in 100% DMSO and added to the cells to give a final DMSO concentration of 0.1%. […] Changes in fluorescence at 516 nm were measured simultaneously in all 96 wells using a cooled CCD camera. Data were generated by determining max-min fluorescence levels for unstimulated, stimulated, and drug treated samples. IC50 values for test compounds were calculated from % inhibition of VEGF stimulated responses in the absence of inhibitor. Protocol for KDR Assay: The cytoplasmic domain of the human VEGF receptor (VEGFR-2) was expressed as a Histidine-tagged fusion protein following infection of insect cells using an engineered baculovirus. His-VEGFR-2 was purified to homogeneity, as determined by SDS-PAGE, using nickel resin chromatography. […]

[2] = biological target: T1, cytoplasmic domain of the human VEGF receptor (VEGFR-2) (Homo sapiens, UniProt P35968); assay: KDR Assay (kinase ELISA, poly-Glu-Tyr substrate); assay type: biochemical; conditions: His-VEGFR-2, 3.6 μM ATP
T1 construct: The cytoplasmic domain of the human VEGF receptor (VEGFR-2) was expressed as a Histidine-tagged fusion protein; His (Histidine tag); made in house; host or cells: insect cells infected with an engineered baculovirus
T1 sequence (P35968 786-1356 limits assumed): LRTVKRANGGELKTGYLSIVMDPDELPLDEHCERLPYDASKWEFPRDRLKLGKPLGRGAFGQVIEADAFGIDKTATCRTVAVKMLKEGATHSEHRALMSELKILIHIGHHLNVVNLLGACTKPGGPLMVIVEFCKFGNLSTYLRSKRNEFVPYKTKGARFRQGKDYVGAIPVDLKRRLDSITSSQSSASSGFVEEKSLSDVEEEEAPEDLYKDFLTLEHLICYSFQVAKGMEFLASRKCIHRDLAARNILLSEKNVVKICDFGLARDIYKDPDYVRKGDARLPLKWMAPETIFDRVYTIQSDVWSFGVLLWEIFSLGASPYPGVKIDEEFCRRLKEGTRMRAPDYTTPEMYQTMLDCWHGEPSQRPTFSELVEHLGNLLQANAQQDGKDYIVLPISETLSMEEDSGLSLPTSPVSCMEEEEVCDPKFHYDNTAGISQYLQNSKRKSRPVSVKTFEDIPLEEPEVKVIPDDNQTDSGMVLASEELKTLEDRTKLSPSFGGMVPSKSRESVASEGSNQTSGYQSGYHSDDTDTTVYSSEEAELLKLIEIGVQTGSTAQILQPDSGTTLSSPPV
Procedure: Automated FLIPR (Fluorometric Imaging Plate Reader) technology was used to screen for inhibitors of VEGF induced increases in intracellular calcium levels in fluorescent dye loaded endothelial cells. HUVEC (human umbilical vein endothelial cells) (Clonetics) were seeded in 96-well fibronectin coated black-walled plates overnight @ 37° C./5% CO2. Cells were loaded with calcium indicator Fluo-4 for 45 minutes at 37° C. Cells were washed 4 times (Original Cell Wash, Labsystems) to remove extracellular dye. Test compounds were reconstituted in 100% DMSO and added to the cells to give a final DMSO concentration of 0.1%. For screening, cells were pre-incubated with test agents for 30 minutes, at a single concentration (10 μM) or at concentrations ranging from 0.01 to 10.0 μM followed by VEGF stimulation (5 ng/mL). Changes in fluorescence at 516 nm were measured simultaneously in all 96 wells using a cooled CCD camera. Data were generated by determining max-min fluorescence levels for unstimulated, stimulated, and drug treated samples. IC50 values for test compounds were calculated from % inhibition of VEGF stimulated responses in the absence of inhibitor. Protocol for KDR Assay: The cytoplasmic domain of the human VEGF receptor (VEGFR-2) was expressed as a Histidine-tagged fusion protein following infection of insect cells using an engineered baculovirus. His-VEGFR-2 was purified to homogeneity, as determined by SDS-PAGE, using nickel resin chromatography. Kinase assays were performed in 96 well microtiter plates that were coated overnight with 30 μg of poly-Glu-Tyr (4:1) in 10 mM Phosphate Buffered Saline (PBS), pH 7.2-7.4. The plates were incubated with 1% BSA and then washed four times with PBS prior to starting the reaction. Reactions were carried out in 120 μL reaction volumes containing 3.6 μM ATP in kinase buffer (50 mM Hepes buffer pH 7.4, 20 mM MgCl2, 0.1 mM MnCl2 and 0.2 mM Na3VO4). Test compounds were reconstituted in 100% DMSO and added to the reaction to give a final DMSO concentration of 5%. Reactions were initiated by the addition 0.5 ng of purified protein. Following a ten minute incubation at 25° C., the reactions were washed four times with PBS containing 0.05% Tween-20. 100 μl of a monoclonal anti-phosphotyrosine antibody-peroxidase conjugate was diluted 1:10000 in PBS-Tween-20 and added to the wells for 30 minutes. Following four washes with PBS-Tween-20, 100 μl of 0-Phenylenediamine Dihydrochloride in Phosphate-citrate buffer, containing urea hydrogen peroxide, was added to the wells for 7 minutes as a colorimetric substrate for the peroxidase. The reaction was terminated by the addition of 100 μl of 2.5N H2SO4 to each well and read using a microplate ELISA reader set at 492 nm. IC50 values for compound inhibition were calculated directly from graphs of optical density (arbitrary units) versus compound concentration following subtraction of blank values. Miles Assay Description VEGF-induced Dermal Extravasation in Guinea Pig (Miles Assay). Male Hartley guinea pigs (300-600 g) were anesthetized with isofluorane, sheared, and given a single oral dose of drug or the respective vehicle. Ten minutes prior to the end of drug treatment, guinea pigs were anesthetized with isofluorane, and 0.5% Evans blue dye (EBD) in PBS (13-15 mg/kg dose of EBD) was injected intravenously. After 5 minutes, triplicate intradermal injections of 100 ng rhVEGF165 in 100 μl PBS and of 100 μl PBS alone were administered on the flank. After 20 minutes, each animal was euthanized with Pentosol, and the skin containing the intradermal injection sites was removed for image analysis.

[3] = tested on: VEGF induced increases in intracellular calcium levels in HUVEC (human umbilical vein endothelial cells); assay: VEGF Stimulated Ca++ signal assay (FLIPR); assay type: cell-based; conditions: VEGF 5 ng/mL
Procedure: VEGF Stimulated Ca^++ Signal in vitro
as §1

Compound	IC50 [2] [µM]	also measured
Cc1cccc2c1C(=CNc1cc[nH]n1)C(=O)N2 [Example 6, 4-Methyl-3-[(1H-pyrazol-3-ylamino)-methylene]-1,3-dihydro-indol-2-one]		in-vivo activity (Miles Assay, in words) [1]: significant in-vivo activity
Cc1cccc2c1C(=CNc1n[nH]c(-c3ccccc3)c1Br)C(=O)N2 [Example 12, 3-[(4-Bromo-5-phenyl-1H-pyrazol-3-ylamino)-methylene]-4-methyl-1,3-dihydro-indol-2-one]	≥ 10	
O=C1Nc2ccc(Cl)cc2C1=CNc1n[nH]c(-c2ccccc2)c1Br [Example 13, 3-[(4-Bromo-5-phenyl-1H-pyrazol-3-ylamino)-methylene]-5-chloro-1,3-dihydro-indol-2-one]	≥ 10	
COC(=O)c1ccc(-c2cc(NC=C3C(=O)Nc4ccccc43)n[nH]2)cc1 [Example 24, 4-{5-[(2-Oxo-1,2-dihydro-indol-3-ylidenemethyl)-amino]-2H-pyrazol-3-yl}-benzoic acid methyl ester]	≥ 10	
Cc1cc(C)c2c(NC=C3C(=O)Nc4ccccc43)n[nH]c2n1 [Example 25, 3-[(4,6-Dimethyl-1H-pyrazolo[3,4-b]pyridin-3-ylamino)-methylene]-1,3-dihydro-indol-2-one]	≥ 10	
Cc1cc(NC=C2C(=O)Nc3ccc(F)cc32)n[nH]1 [Example 26, 5-Fluoro-3-[(5-methyl-1H-pyrazol-3-ylamino)-methylene]-1,3-dihydro-indol-2-one]		in-vivo activity (Miles Assay, in words) [1]: significant in-vivo activity
O=C1Nc2ccccc2C1=CNc1cc(-c2cc(OCc3ccccc3)cc(OCc3ccccc3)c2)n[nH]1 [Example 31, 3-{[5-(3,5-Bis-benzyloxy-phenyl)-2H-pyrazol-3-ylamino]-methylene}-1,3-dihydro-indol-2-one]	≥ 10	
Cc1ccc(-c2cc(NC=C3C(=O)Nc4ccccc43)[nH]n2)c(C)c1 [Example 34, 3-{[5-(2,4-Dimethyl-phenyl)-2H-pyrazol-3-ylamino]-methylene}-1,3-dihydro-indol-2-one]	≥ 10	
Cc1cc(C)c(Cc2cc(NC=C3C(=O)Nc4ccccc43)[nH]n2)c(C)c1 [Example 36]	≥ 10	inhibition at 10 µM ([3]; 10 μM compound, 30 min pre-incubation): 69.3%; IC50 ([3]; 0.01 to 10.0 μM): 5.9 µM
Cc1cccc(Cc2cc(NC=C3C(=O)Nc4ccccc43)[nH]n2)c1 [Example 39, 3-{[5-(3-Methyl-benzyl)-2H-pyrazol-3-ylamino]-methylene}-1,3-dihydro-indol-2-one]	≥ 10	
O=C1Nc2ccccc2C1=CNc1cc(Cc2ccccc2)n[nH]1 [Example 40, 3-[(5-Benzyl-2H-pyrazol-3-ylamino)-methylene]-1,3-dihydro-indol-2-one]	≥ 10	
